From patent US20150306056A1, “USE OF A DHA ESTER FOR PROPHYLACTIC AND/OR CURATIVE TREATMENT OF DREPANOCYTOSIS” (PIERRE FABRE MEDICAMENT, priority 2012, published 2015)

What was measured:
Assay type in all cases: in vivo
[1] = DHA level of red blood cells in dogs given nicotinol DHA via oral route
Source text: (§1) Effect of nicotinol DHA on the fatty acid composition of plasma and red blood cells in dogs treated via oral route. The objective of this first study was to assay total DHA in the blood (plasma and red blood cells) of dogs given nicotinol DHA via oral route.
(§2) Two groups of 10 dogs were used:
(§3) Group 2: nicotinol DHA at 2 g per day.
(§4) All the animals were given either a placebo or nicotinol DHA at 2 g per day via oral route for 28 days. Blood samples were taken at D1 (control), D7, D14, D21 and D28.
(§5) The total lipids of the plasma (500 μL) and of the red blood cells (≈500 mg, the weighing of red blood cells is more accurate than measuring volume) were extracted with 4 mL of hexane/isopropanol mixture ([…]) in an acid medium (3M HCl, 500 μL) in the presence of margaric acid as internal standard (100 μg). After agitation and centrifugation (2000 g, 15 minutes, 10° C.) the organic phase was separated. A second extraction with 2 mL of the same solvent was performed under the same conditions. The organic phases were washed with 2 mL of saline water ([…]). The solvents were evaporated under a stream of nitrogen at 40° C.
(§6) The total lipids derived from the plasma and red blood cells were then saponified (1 mL of 0.5M NaOH in methanol, 70° C., 30 minutes) then converted to methyl eaters (1 mL, 14% BF3 in methanol, 70° C., 15 minutes). After hydrolysio (4 mL […]) they were extracted with 4 then 2 mL of pentane. The organic phases were washed with 2 mL of saline water (9% NaCl). The solvents were evaporated under a stream of nitrogen at 40° C. The methyl esters were re-dissolved in 200 μL hexane for the plasma and red blood cells. The extracted fatty acid methyl esters were analysed by gas phase chromatography. The chromatograph (Agilent Technologies 6890N) was equipped with a split injector heated to 260° C. (1:10 division ratio), capillary column (length 60 m, diameter 0.25 mm) with BPX70 stationary phase (70% cyanopropylpolyphenylene-siloxane; thickness 0.25 μm) and flame ionization detector heated to 260° C. (hydrogen: 40 mL/min, air: 450 mL/min). The vector gas was helium (constant flow rate 1.5 mL/min). The temperature of the column was initially 150° C. and brought at a temperature gradient of 1.3° C./min up to 220° C. then 40° C./min to reach 260° C. for 5 minutes. The retention times of standard methyl esters allowed identification of the extracted fatty acid methyl esters.
(§7) The DHA was quantitated relative to the internal standard (C17:0) added in known quantity to the sample before extraction of the total lipids. It is expressed in μg/mL for the plasma, in μg/g for the red blood cells. The values are given as a mean f standard deviation (in general n=10). The significant differences are shown by a Student's test with 5% threshold.

[2] = DHA plasma level in dogs given nicotinol DHA via oral route
Source text: as §1, §2, §3, §4, §5, §6, §7

[3] = DHA level of red blood cells in rats given panthenol DHA via oral force-feeding; conditions: 300 and 1000 mg/kg per day oral, 7 days (FIG. 1)
Procedure: (§8) Incorporation of DHA in the plasma and red blood cells of rats receiving panthenol […] via oral route. The objective of this study was to assay total DHA in the blood (plasma and red blood cells) of rats given panthenol DHA via oral force-feeding for 7 days.
(§9) Three groups of 4 rats (2 male and 2 female) were used:
(§10) Group 1: control group (olive oil)
(§11) Group 2: panthenol DHA at 300 mg/kg per day.
(§12) Group 3: panthenol DHA at 1000 mg/kg per day.
(§13) The total lipids of the plasma (500 μL) and red blood cells were extracted with a hexane/isopropanol mixture (3:2, v/v) in an acid medium (3M HCl, 1 mL) in the presence of margaric acid as internal standard. The total lipids from the plasma and red blood cell were saponified (i mL 0.5M NaOH in methanol, 70° C., 30 minutes) then converted to methyl esters (1 mL, 14% BF) in methanol, 70° C., 15 minutes). The fatty acid methyl esters were extracted with pentane then analysed by gas phase chromatography. The chromatograph (Agilent Technologies 6890N) was equipped with a split injector heated to 250° C. (division ratio 1:10) and a capillary column (length 60 m, diameter 0.25 mm) with BPX70 stationary phase (70% cyanopropylpolyphenylene-siloxane; thickness 0.25 μm). The vector gas was helium. […]
(§14) The DHA was quantitated in relation to the internal standard (C17:0) added in known quantity to the sample before extraction of the total lipids. […]

[4] = DHA concentration in human red blood cells after oral panthenol DHA (clinical trial); conditions: irrespective of the dose (1, 2, 4 g/day), 28 days
Procedure: Concentration of DHA in human red blood cells after absorption of panthenol DHA.
The objective of this clinical trial was to determine total DHA concentrations in the red blood cells of volunteers given a once daily oral dose of panthenol DHA for 28 days. Three doses of panthenol […] were tested in this trial: 1, 2 and 4 g/day. Twelve persons were included in this trial, 3 were given a placebo (without panthenol DHA) and 9 were given panthenol DHA.
Blood samples were taken before administering panthenol DHA (corresponding to the baseline) and thereafter at days 4, 7, 10 14, 15, 19, 22, 25 and 29 to determine the DHA concentrations in the red blood cells. Two blood samples of 4 mL each were taken in tubes containing EDTA. The tubes were centrifuged at 3000 g for 15 minutes at ambient temperature within 30 minutes after the taking of the sample. […]
The lipids were extracted from the red blood cell samples (≈500 mg) using a hexane/isopropanol mixture (3:2 v/v) in an acid medium in the presence of margaric acid as internal standard (100 μg). […] After extraction with pentane, the extracted fatty acid methyl esters were analysed by gas phase chromatography. […]
The DHA was quantitated relative to the internal standard (C17:0) added in known quantity to the sample before extraction of the total lipids. […]

[5] = DHA plasma level in rats given panthenol DHA via oral force-feeding; conditions: 300 and 1000 mg/kg per day oral, 7 days (FIG. 1)
Procedure: as §8, §9, §10, §11, §12, §13, §14

[6] = 2 g/D oral, significant at every treatment time vs control group
[7] = group 2, D −1 (start of the experiment, before treatment with 2 g/D oral)

| DHA level of red blood cells, mean ([1]; 2 g/D oral, D 7) | DHA level of red blood cells, mean ([1]; 2 g/D oral, D 14) | DHA level of red blood cells, mean ([1]; 2 g/D oral, D 21) | DHA level of red blood cells, mean ([1]; 2 g/D oral, D 28) | effect of treatment on DHA level of red blood cells [1, 6] | DHA level of red blood cells, mean [1, 7] | DHA plasma level, mean ([2]; 2 g/D oral, D 7) | DHA plasma level, mean ([2]; 2 g/D oral, D 14) | DHA plasma level, mean ([2]; 2 g/D oral, D 21) | DHA plasma level, mean ([2]; 2 g/D oral, D 28) | effect of treatment on plasma DHA [2, 6] | DHA plasma level, mean [2, 7] | amount of DHA found in the red blood cells ([3]; female rats) | amount of DHA found in the red blood cells ([3]; male rats) | amount of DHA found in the plasma ([5]; female rats) | amount of DHA found in the plasma ([5]; male rats) | SMILES | DHA level in human red blood cells versus placebo [4] |
| --- | --- | --- | --- | --- | --- | --- | --- | --- | --- | --- | --- | --- | --- | --- | --- | --- | --- |
| 4.7 µg/mL | 7.1 µg/mL | 8.3 µg/mL | 8.7 µg/mL | rise in the DHA level of red blood cells | 1.7 µg/mL | 22.1 µg/mL | 23.7 µg/mL | 27.9 µg/mL | 32.6 µg/mL | increase in plasma DHA | 3.8 µg/mL | – | – | – | – | CC/C=C\C/C=C\C/C=C\C/C=C\C/C=C\C/C=C\CCC(=O)OCc1cccnc1 [nicotinol DHA] | – |
| – | – | – | – | – | – | – | – | – | – | – | – | only increased with the higher dose | dependent on the dose | only increased with the higher dose | dependent on the dose | CC/C=C\C/C=C\C/C=C\C/C=C\C/C=C\C/C=C\CCC(=O)OCCCNC(=O)[C@@H](O)C(C)(C)CO [panthenol DHA, panthenyl docosahexaenoate] | increased compared with the placebo group |
